From the OligoGym collection
“And” between values parts separate entries of the source, which are not always exact repeats. Identical values can stand only once. After the bases stand the sugars from the 5' end (letter, count) and the backbone: PS all phosphorothioate, else s phosphorothioate and o phosphodiester by linkage. Methylation of C is not given here. e = 2'-O-(2-methoxyethyl) (MOE); k = constrained ethyl (cEt); d = 2'-deoxy (DNA)

These sequences were tested against IRF4. Conditions: ASO, MM.1R, 0.0625 µM.

Sequence	target mRNA inhibition
AAGCTTAGTTATCTGG (sugars k3 d10 k3, PS)	-13%
TACGCTTATTTTTCCA (sugars k3 d10 k3, PS)	1% and 12%

Same assay, conditions: ASO, MM.1R, 0.25 µM

Sequence	target mRNA inhibition
AAGCTTAGTTATCTGG (sugars k3 d10 k3, PS)	-10%
TACGCTTATTTTTCCA (sugars k3 d10 k3, PS)	29% and 44%

Same assay, conditions: ASO, MM.1R, 1 µM

Sequence	target mRNA inhibition
TGCTTGAGGTTTTCCT (sugars kkdddddddddekeke, PS)	45%
AGCAGTGATGTCAGGT (sugars kkddddddddddkeke, PS)	67% and 64%
CAGTTGTAAATGAGTC (sugars kkdddddddddkdkdk, PS)	46%
ATCTGTATAGTTCTCA (sugars k3 d10 k3, PS)	55%
GCGCGGAGGGCAGGCG (sugars k3 d10 k3, PS)	-32%
CATTCACACTGCCGTG (sugars k3 d10 k3, PS)	6%
AAGCTTAGTTATCTGG (sugars k3 d10 k3, PS)	35% and 13%
TGATAGCTGAGCTGAT (sugars kddddddddddkekek, PS)	22%
TGTGATAGCTGAGCTG (sugars kdddddddddkekeke, PS)	18%
ACAAAAACTTGGGTCA (sugars k3 d10 k3, PS)	-13%
CACACTGCCGTGATCT (sugars k3 d10 k3, PS)	20%
TGTTACCGATGCTTCA (sugars kddddddddddkekek, PS)	26% and 18%
AGCAGTGATGTCAGGT (sugars kkdddddddddkdkdk, PS)	55% and 48%
ATGTGATAGCTGAGCT (sugars k2 d9 e3 k2, PS)	0%
CTACACAGGCTAATCA (sugars k3 d10 k3, PS)	4%
ACATTGGTACGGGATT (sugars k3 d10 k3, PS)	2%
AAGCAGTGATGTCAGG (sugars kkdddddddddkdkdk, PS)	60% and 61%
CCTGTACACTTTGTAC (sugars k3 d10 k3, PS)	-2%
TCTTTATAGTAGGTAA (sugars k3 d10 k3, PS)	14%
GCATAGGCATCCTTCC (sugars k3 d10 k3, PS)	8%
CTCCAGCTTCGGTCGA (sugars k3 d10 k3, PS)	9%
GGAAGTTTACACTGGA (sugars kkkddddddddkekek, PS)	43%
CAGCACCGTGGTGCGA (sugars k3 d10 k3, PS)	-27%
GTTCAAGACAAGGGTT (sugars k3 d10 k3, PS)	15%
GTTCAGTGTGTTGACC (sugars k3 d10 k3, PS)	30%
GCAGGGACCGCGCCAG (sugars k3 d10 k3, PS)	10%
GGCACATCAATGTTTT (sugars k3 d10 k3, PS)	18% and 14%
AGTAACTTGACTTGAG (sugars k3 d10 k3, PS)	-3%
TACGCTTATTTTTCCA (sugars k3 d10 k3, PS)	51% and 56%

Same assay, conditions: ASO, MM.1R, 4 µM

Sequence	target mRNA inhibition
AAGCTTAGTTATCTGG (sugars k3 d10 k3, PS)	45%
TACGCTTATTTTTCCA (sugars k3 d10 k3, PS)	65% and 77%

Same assay, conditions: ASO, SK-MEL-28, 4 µM

Sequence	target mRNA inhibition
TCCGCTTGGAGAATTA (sugars k3 d10 k3, PS)	13%
CCACAGAGGACTTCGG (sugars k3 d10 k3, PS)	27%
TTCAGACAGATGCAGC (sugars k3 d10 k3, PS)	62%
TAGGGATACAGCAGGC (sugars k3 d10 k3, PS)	73%
TTACGAGAGGGTCTGA (sugars k3 d10 k3, PS)	51%
GCTTGAGGTTTTCCTA (sugars k3 d10 k3, PS)	77%
TCTGAGCAGAACGAGG (sugars k3 d10 k3, PS)	47%
CAAGGATAACCTGAAC (sugars k3 d10 k3, PS)	26%
CCTAGAGGTGCCTTCT (sugars k3 d10 k3, PS)	41%
ACTGTAAGGGCTGCTC (sugars k3 d10 k3, PS)	69%
TGTGAAGCATCCTTTC (sugars k3 d10 k3, PS)	45%
CCGCCCGCTCTGCTCT (sugars k3 d10 k3, PS)	54%
TGTCAATACTGAAAGG (sugars k3 d10 k3, PS)	36%
GAACAGTAACTTGACT (sugars k3 d10 k3, PS)	4%
AGGAAGCACTGGCATT (sugars k3 d10 k3, PS)	59%
TTAATCTGTCTAAACC (sugars k3 d10 k3, PS)	16%
CTGGATTGATGTGATA (sugars k3 d10 k3, PS)	43%
TGCCACAGTTGAACCC (sugars k3 d10 k3, PS)	50%
GCACGAGGAAGCATAG (sugars k3 d10 k3, PS)	58%
TAAAAGGTTCCTGTCA (sugars k3 d10 k3, PS)	6%
GATTTATGTTCCTTAA (sugars k3 d10 k3, PS)	47%
TGTAACAGGCTATCAG (sugars k3 d10 k3, PS)	31%
CTTGAGGTTTTCCTAA (sugars k3 d10 k3, PS)	40%
GTCCACTGAGTACAAA (sugars k3 d10 k3, PS)	13%
TTCACGCACCATTCAG (sugars k3 d10 k3, PS)	16%
GCTGTTTATTTCCTAC (sugars k3 d10 k3, PS)	66%

Sequence	target mRNA inhibition
CATGATATTAGAGACT (sugars k3 d10 k3, PS)	56%
GATAACCTGAACATGA (sugars k3 d10 k3, PS)	17%
CACTAAGCTTGATAAA (sugars k3 d10 k3, PS)	-11%
ACAAAACGGACTGGAA (sugars k3 d10 k3, PS)	14%
GCGGAGGTTCCTTGAG (sugars k3 d10 k3, PS)	44%
CCGGAAGAAGGCACCT (sugars k3 d10 k3, PS)	17%
TGCCGAACTCTCCGCC (sugars k3 d10 k3, PS)	43%
GGGATTCCGCGCGCAG (sugars k3 d10 k3, PS)	14%
AGTTCATTCCCTAGGT (sugars k3 d10 k3, PS)	44%
CTTGAAGAGCGCGGCG (sugars k3 d10 k3, PS)	21%
ATCAATGATGGCAGTC (sugars k3 d10 k3, PS)	57%
CAACAGCACTGTCCAC (sugars k3 d10 k3, PS)	43%
GCCCATGAGTTGAAAG (sugars k3 d10 k3, PS)	32%
TCGCCCATGAGTTGAA (sugars k3 d10 k3, PS)	39%
TCCCACTGTCACTATG (sugars k3 d10 k3, PS)	15%
ATGGACCACGCAGCCT (sugars k3 d10 k3, PS)	39%
TAGTTTAAGGGTTACG (sugars k3 d10 k3, PS)	49%
GACCAGGATTCGCCAT (sugars k3 d10 k3, PS)	23%
GGAGTGCAGGAGAGGC (sugars k3 d10 k3, PS)	16%
GGACACTTTTAGAGAG (sugars k3 d10 k3, PS)	62%
TGGTAGGTCAAACTCC (sugars k3 d10 k3, PS)	-13%
AAAGACCCCAGCTATG (sugars k3 d10 k3, PS)	23%
TCAACCGCTGAACTGA (sugars k3 d10 k3, PS)	35%
ACGACAGCTGCGGAGC (sugars k3 d10 k3, PS)	27%
GTCTACAGAACACAAG (sugars k3 d10 k3, PS)	24%
CTGCATGAGGGTGACA (sugars k3 d10 k3, PS)	19%

Sequence	target mRNA inhibition
TGCTGATGTGTTCTGG (sugars k3 d10 k3, PS)	67% and 58%
GAGCTCTTCCAGATCC (sugars k3 d10 k3, PS)	5%
GGCCCTGTCAAACTAT (sugars k3 d10 k3, PS)	40%
ACTGAGAGTGCGAGGT (sugars k3 d10 k3, PS)	-20%
CATTTCATTTAATGTC (sugars k3 d10 k3, PS)	33%
TTGTGAAGCATCCTTT (sugars k3 d10 k3, PS)	63%
TGCTAGATTCTCCCTG (sugars k3 d10 k3, PS)	33%
CTGTACACTTTGTACG (sugars k3 d10 k3, PS)	34%
CACATCACTTGGTCAA (sugars k3 d10 k3, PS)	72%
GTGCAAAACCAGTACA (sugars k3 d10 k3, PS)	33%
CTGACTTTAATATTAG (sugars k3 d10 k3, PS)	56%
GACCACGAGGCCCCGG (sugars k3 d10 k3, PS)	31%
ATTAAAGAGTGGTACA (sugars k3 d10 k3, PS)	-7%
TCTTACTCCGCTGAGT (sugars k3 d10 k3, PS)	35%
GACCTAATCTACAACA (sugars k3 d10 k3, PS)	33%
CTCCACTGTTAAAGCA (sugars k3 d10 k3, PS)	52%
GTGAAGCATCCTTTCC (sugars k3 d10 k3, PS)	63%
GGGTTAAATATTCTTC (sugars k3 d10 k3, PS)	52%
CACCACTATTCGAGAG (sugars k3 d10 k3, PS)	48%
CCCCATATACATTGAG (sugars k3 d10 k3, PS)	37%
TTGCATCCATGTCAAC (sugars k3 d10 k3, PS)	47%
CTCTAGACAGAGGCCC (sugars k3 d10 k3, PS)	20%
TCACAGATTAATAGTA (sugars k3 d10 k3, PS)	23%
TCTCAAGGAGATCCAC (sugars k3 d10 k3, PS)	1%
GAGGAATGAGCACTCT (sugars k3 d10 k3, PS)	26%
